Values after ≈ are worked out from the molar mass of the structure shown.
Experiments:
A. aureus = assay type: cell-based
Method: (§1) All bacteria were cultured in Luria-Bertani (LB) medium (10 g/l tryptone, 5 g/l yeast extract, 5 g/l NaCl, pH 7.4).
(§2) Bacteria were grown overnight in LB growth medium and diluted 10,000-fold in same medium.
(§3) Inhibition of proliferation was determined by optical density measurements (620 nm) after incubation overnight at 37° C.

E. coli = assay type: cell-based
Method: as §1, §2, §3

[1] = Cochleate formation by light microscopy; assay type: physicochemical; parameters: key: or above (E!); excellent (E); good (G); poor (P); none (N)
Method: Lipid films containing binary mixtures of lipids were made from aliquots of stock solutions in chloroform:methanol (2:1). The solvent was evaporated with a stream of nitrogen gas and the lipids deposited as a film on the walls of a glass tube. The tubes were then placed in a vacuum dessicator for 3 hours. The films were kept under Argon at −20° C. The lipid films were hydrated with buffer solutions of OAK polymers with extensive vortexing, so as to have a lipid to polymer molar ratio of […].
Hydrated films were subjected to freeze thawing three times before imaging, to ensure proper equilibration of OAK with the multilamellar vesicles. A drop of this mixture was placed on a glass slide and covered with a glass coverslip. Light microscopy was carried out at room temperature using a Zeiss Axiovert 100M microscope with a Plan-Neofluar 100×/1.3 oil immersion objective. Images were analyzed with the Zeiss LSM image browser v2.8.
The morphology of the samples of different OAKs and different lipid mixtures could be classified into the following categories.
Table 5 presents the results of cochleate formation with different lipid mixtures of 1:10 lipid to polymer ratio, and a series of OAK polymers, indicated by their alternative denotations and SED ID Nos in parentheses. “Tm” denotes the melting temperature of the lipid bilayer afforded by the given lipid mixture. Some selected samples were further analyzed to confirm the results with freeze fracture electron microscopy for, as indicated in Table 5. Cochleate formation is defined as excellent (E) or above (E!), good (G), poor (P), or none (N) based on the aforementioned comparison, as well as on the abundance of cochleate structures observed in the light microscopy images. Lipid mixtures having a number in parenthesis are samples for which freeze-fracture electron microscopy analysis was conducted. Lipid mixtures having a “+” sign next to the number in parenthesis are samples which were confirmed by freeze-fracture electron microscopy as forming large cochleates with few vesicles and no inverted micellar (HII) morphology (samples 2, 3 and 5), or smaller cochleate structures mixed with other morphologies (samples 0 and 4). Lipid mixtures which contain only anionic lipids are marked with “^A”. Sample 0 is the lipid/OAK system used and presented in Example 1 hereinabove.

[2] = Molecular charge and RP-HPLC hydrophobicity of polymers; assay type: physicochemical; conditions: HPLC-RP gradient mobile phase
Text: Briefly, the polymers were synthesized while applying the Fmoc active ester chemistry on a fully automated, programmable peptide synthesizer (Applied Biosystems 433A). After cleavage from the resin, the crude product was extracted with 30% acetonitrile in water and purified by RP-HPLC (Alliance Waters), so as to obtain a chromatographic homogeneity higher than 95%. HPLC runs were typically performed on C18 columns (Vydac, 250 mm×4.6 or 10 mm) using a linear gradient of acetonitrile in water (1% per minute), both solvents containing 0.1% trifluoroacetic acid. The purified polymers were subjected to mass spectrometry (ZQ Waters) and NMR analyses to confirm their composition, and stored as a lyophilized powder at −20° C. Prior to being tested, fresh solutions were prepared in water, vortexed, sonicated, centrifuged and then diluted in the appropriate medium.
“Q” represents the overall molecular charge at physiological pH; “ACN (%)” represents the percent of acetonitrile in the HPLC-RP gradient mobile phase at which the polymer was eluted and which corresponds to the estimated hydrophobicity of the polymer. The column headed by “Ref.” indicates prior reference of the OAK if present, wherein a number in parentheses “(##)” corresponds to the SEQ ID NO in U.S. Pat. No. 7,504,381; the letter “R” indicates a polymer published in Radzishevsky I. S. et al. (2008), Chem. Biol., 15(4), pp. 354-362; and “New” indicates a novel polymer disclosed herein.

[3] = DMPE:DOPG 75:25, 1:10 lipid to polymer ratio
[4] = DMPE:TOCL 75:25, 1:10 lipid to polymer ratio
[5] = DOPE:TOCL 75:25, 1:10 lipid to polymer ratio
[6] = DPPE:TOCL 75:25, 1:10 lipid to polymer ratio
[7] = POPC:TOCL 75:25, 1:10 lipid to polymer ratio
[8] = POPE:DOPG 75:25, 1:10 lipid to polymer ratio
[9] = POPE:TOCL 75:25, 1:10 lipid to polymer ratio
[10] = POPG:TOCL 75:25 (anionic lipids only), 1:10 lipid to polymer ratio
[11] = DMPE:TOCL75:25, 10:1 lipid to polymer ratio (Table 6)
[12] = POPE:TOCL 75:25, 10:1 lipid to polymer ratio (Table 6)

For `CCCCCCCCCCCC(=O)N[C@@H](CCCCN)C(=O)NCCCCCCCC(=O)N[C@@H](CCCCN)C(=O)NCCCCCCCC(=O)N[C@@H](CCCCN)C(=O)NCCCCCCCC(=O)N[C@@H](CCCCN)C(=O)NCCCCCCCC(=O)N[C@@H](CCCCN)C(=O)NCCCCCCCC(=O)N[C@@H](CCCCN)C(N)=O` [C12K-5α8, C12K(NC8K)5NH2], the “MIC A. aureus” value (A. aureus) was 50 µM (≈ 83.7 µg/mL), the “MIC E. coli” value (E. coli) was 3.1 µM (≈ 5.19 µg/mL) and the Cochleate formation ([1]; DMPC:TOCL 75:25, 1:10 lipid to polymer ratio) was “N”. The Cochleate formation [1, 3] was “E”, the Cochleate formation [1, 4] was “P” and the Cochleate formation ([1]; DMPG:TOCL 75:25 (anionic lipids only), 1:10 lipid to polymer ratio) was “G”. For the same compound, the Cochleate formation [1, 5] was “N”, the Cochleate formation [1, 6] was “E” and the Cochleate formation [1, 7] was “P”. The Cochleate formation [1, 8] was “G”, the Cochleate formation ([1]; POPE:DOPG:TOCL 80:15:5, 1:10 lipid to polymer ratio) was “N” and the Cochleate formation [1, 9] was “G”. For the same compound, the Cochleate formation [1, 10] was “P” and the “ACN (%) (percent acetonitrile at elution, estimated hydrophobicity)” value [2] was 49.7%.
For `CCCCCCCCCCCC(=O)N[C@@H](CCCCN)C(=O)NCCCCCCCC(=O)N[C@@H](CCCCN)C(=O)NCCCCCCCC(=O)N[C@@H](CCCCN)C(=O)NCCCCCCCC(=O)N[C@@H](CCCCN)C(=O)NCCCCCCCC(=O)N[C@@H](CCCCN)C(=O)NCCCCCCCC(=O)N[C@@H](CCCCN)C(=O)NCCCCCCCC(=O)N[C@@H](CCCCN)C(N)=O` [C12K-6α8, C12K(NC8K)6NH2], the “MIC A. aureus” value (A. aureus) was 50 µM (≈ 97.2 µg/mL), the “MIC E. coli” value (E. coli) was 3.1 µM (≈ 6.03 µg/mL) and the Cochleate formation [1, 3] was “G”. The Cochleate formation [1, 9] was “G” and the “ACN (%) (percent acetonitrile at elution, estimated hydrophobicity)” value [2] was 50%.
In the case of `CCCCCCCCCCCC(=O)N[C@@H](CCCCN)C(=O)NCCCCCCCCCCCC(=O)N[C@@H](CCCCN)C(=O)NCCCCCCCCCCCC(=O)N[C@@H](CCCCN)C(=O)NCCCCCCCCCCCC(=O)N[C@@H](CCCCN)C(=O)NCCCCCCCCCCCC(=O)N[C@@H](CCCCN)C(=O)NCCCCCCCCCCCC(=O)N[C@@H](CCCCN)C(=O)NCCCCCCCCCCCC(=O)N[C@@H](CCCCN)C(=O)NCCCCCCCCCCCC(=O)N[C@@H](CCCCN)C(N)=O` [C12K-7α12, C12K(NC12K)7NH2], the “MIC A. aureus” value (A. aureus) is reported as greater than 50 µM, the “MIC E. coli” value (E. coli) is reported as greater than 50 µM and the Cochleate formation [1, 11] is reported as “P”. For the same compound, the Cochleate formation [1, 12] was “N” and the “ACN (%) (percent acetonitrile at elution, estimated hydrophobicity)” value [2] was 55.2%.
With `CCCCCCCCCCCC(=O)NC(CCCCN)C(=O)NCCCCCCCC(=O)NC(CCCCN)C(=O)NCCCCCCCC(=O)NC(CCCCN)C(=O)NCCCCCCCC(=O)NC(CCCCN)C(=O)NCCCCCCCC(=O)NC(CCCCN)C(=O)NCCCCCCCC(=O)NC(CCCCN)C(=O)NCCCCCCCC(=O)NC(CCCCN)C(=O)NCCCCCCCC(=O)NC(CCCCN)C(=O)NCCCCCCCC(=O)NC(CCCCN)C(=O)NCCCCCCCC(=O)NC(CCCCN)C(=O)NCCCCCCCC(=O)NC(CCCCN)C(=O)NCCCCCCCC(=O)NC(CCCCN)C(N)=O` (stereo not drawn) [C12K-11α8, C12K(NC8K)11NH2] the “MIC A. aureus” value (A. aureus) was greater than 50 µM, the “MIC E. coli” value (E. coli) was 3.1 µM (≈ 10.2 µg/mL) and the Cochleate formation [1, 3] was “E”. For the same compound, the Cochleate formation [1, 4] was “G”, the Cochleate formation [1, 5] was “G” and the Cochleate formation [1, 6] was “P”. The Cochleate formation [1, 7] was “P”, the Cochleate formation [1, 8] was “P” and the Cochleate formation [1, 9] was “G”. For the same compound, the Cochleate formation [1, 10] was “N” and the “ACN (%) (percent acetonitrile at elution, estimated hydrophobicity)” value [2] was 42.2%.
For `NCCCCCCCCCCCC(=O)NC(CCCCN)C(=O)NCCCCCCCC(=O)NC(CCCCN)C(=O)NCCCCCCCC(=O)NC(CCCCN)C(=O)NCCCCCCCC(=O)NC(CCCCN)C(=O)NCCCCCCCC(=O)NC(CCCCN)C(=O)NCCCCCCCC(=O)NC(CCCCN)C(=O)NCCCCCCCC(=O)NC(CCCCN)C(=O)NCCCCCCCC(=O)NC(CCCCN)C(N)=O` (stereo not drawn) [α12-7α8, NC12K(NC8K)7NH2], the “MIC A. aureus” value (A. aureus) was 50 µM (≈ 111 µg/mL), the “MIC E. coli” value (E. coli) was 12.5 µM (≈ 27.9 µg/mL) and the Cochleate formation [1, 11] was “E”. For the same compound, the Cochleate formation [1, 12] was “G-E” and the “ACN (%) (percent acetonitrile at elution, estimated hydrophobicity)” value [2] was 36.9%.
For `CCCCCCCCCCCC(=O)N[C@@H](CCCCN)C(=O)NCCCC(=O)N[C@@H](CCCCN)C(=O)NCCCC(=O)N[C@@H](CCCCN)C(=O)NCCCC(=O)N[C@@H](CCCCN)C(=O)NCCCC(=O)N[C@@H](CCCCN)C(=O)NCCCC(=O)N[C@@H](CCCCN)C(=O)NCCCC(=O)N[C@@H](CCCCN)C(=O)NCCCC(=O)N[C@@H](CCCCN)C(N)=O` [C12K-7α4, C12K(NC4K)7NH2], the “MIC A. aureus” value (A. aureus) was greater than 50 µM, the “MIC E. coli” value (E. coli) was 12.5 µM (≈ 22.8 µg/mL) and the Cochleate formation [1, 11] was “G”. The Cochleate formation [1, 12] was “G-E” and the “ACN (%) (percent acetonitrile at elution, estimated hydrophobicity)” value [2] was 45.2%.
